# Strand notation (5' to 3'): a small letter for the sugar, then the base; units joined by * are phosphorothioate-linked, units joined directly phosphodiester-linked; [ ] holds rarer units or linkages, { } end groups; capitals alone tell only the bases. e = 2'-O-(2-methoxyethyl) (MOE); k = constrained ethyl (cEt); [5mC] = 5-methylcytosine; d = 2'-deoxy (DNA); m = 2'-O-methyl
# Tested on: Yap1 mRNA
# Experiment: Antisense inhibition of human Yap1 in SNU-449 cells by modified oligonucleotides, single dose (Example 5, RTS36584)
# Assay type: cell-based
# In short: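 Values are % of untreated control: Yap1 mRNA by quantitative RT-PCR (RTS36584), normalized to RIBOGREEN total RNA. Oligonucleotides were dosed at 2,000 nM, free uptake, in SNU-449 cells, with roughly 48 h exposure before RNA isolation.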
# [1] = Table 51, Yap1 mRNA remaining as percent of untreated control (UT), SNU-449 cells, single dose
# [2] = Table 46, Yap1 mRNA as percent of untreated control, SNU-449 cells, single dose
# [3] = Yap1 mRNA, percent of untreated control, modified oligonucleotides targeting SEQ ID NO: 1 and 2, Table 47
# [4] = Table 42 (separate experiment), SNU-449 cells, 10,000 cells per well, free uptake, 2,000 nM modified oligonucleotide, approximately 48 hours, RTS36584, normalized to RIBOGREEN, Yap1 mRNA relative to untreated control cells
# [5] = Table 39, SNU-449 cells, 10,000 cells per well, free uptake, 2,000 nM oligonucleotide, approx. 48 hours, RTS36584, normalized to RIBOGREEN, Yap1 mRNA relative to untreated control
# [6] = Table 40 (separate experiment), SNU-449 cells, 10,000 cells per well, free uptake, 2,000 nM oligonucleotide, approx. 48 hours, RTS36584, normalized to RIBOGREEN, Yap1 mRNA relative to untreated control
# [7] = Table 45, Yap1 mRNA as percent of untreated control, SNU-449 cells, single dose
# [8] = Table 48, Yap1 mRNA level relative to untreated control, modified oligonucleotides targeting SEQ ID NO.: 1 and 2
# [9] = Table 49, Yap1 mRNA level relative to untreated control, modified oligonucleotides targeting SEQ ID NO.: 1 and 2
# [10] = Table 52, Yap1 mRNA, modified oligonucleotides targeting SEQ ID NO: 1 and 2
# [11] = Table 44 experiment, SNU-449 cells, 10,000 cells per well, free uptake, 2,000 nM, approximately 48 hours, RTS36584, Yap1 mRNA normalized to RIBOGREEN, relative to untreated control cells
substance,measurement,setting,value
1197309 (kG*kT*kA*dA*mU*dA*dT*dT*dG*d[5mC]*dA*dA*dT*k[5mC]*kT*kG; antisense) [Compound 1197309],YAP1 (% UT),[1],11 % UT
1198846 (kT*kT*dA*dG*dG*dA*dT*dG*d[5mC]*dA*dT*kG*eG*kT*eT*kT; antisense) [Compound 1198846],YAP1 (% UT),[2],34 % UT
1198867 (kG*kT*dA*dA*dT*dA*dT*dT*dG*d[5mC]*dA*kA*eT*k[5mC]*eT*kG; antisense) [Compound 1198867],YAP1 (% UT),[2],25 % UT
1198859 (kA*k[5mC]*dT*d[5mC]*dT*dT*dA*dT*dA*dT*dG*kG*eT*kT*eT*kT; antisense) [Compound 1198859],YAP1 (% UT),[3],33 % UT
1198230 (kG*kG*dA*dA*dG*dA*dT*d[5mC]*dT*dG*dA*eA*eA*e[5mC]*kT*k[5mC]) [Compound 1198230],YAP1 (% UTC),[4],81 % UTC
1198454 (kA*dG*dA*d[5mC]*dT*dA*dA*dG*dT*dA*dA*kG*eG*kT*eT*kT; antisense) [Compound 1198454],YAP1 (% UTC),[5],39 % UTC
1198801 (antisense kG*eA*k[5mC]*dT*dA*dA*dG*dT*dA*dA*dG*dG*eT*eT*kT*k[5mC]) [Compound 1198801],YAP1 (% UTC),[6],47 % UTC
1198682 (antisense k[5mC]*kT*d[5mC]*dT*dT*dA*dT*dA*dT*dG*dG*dT*kT*eT*kT*eG) [Compound 1198682],YAP1 (% UTC),[4],25 % UTC
1198407 (kT*dG*d[5mC]*dT*dT*dT*dG*dG*dA*dA*dG*kA*eT*k[5mC]*eT*kG; antisense) [Compound 1198407],YAP1 (% UTC),[5],23 % UTC
1197273 (kT*kA*kA*dG*mG*dT*dT*dT*d[5mC]*d[5mC]*d[5mC]*dA*dG*kA*kT*kT) [Compound 1197273],YAP1 (% UT),[1],68 % UT
1198732 (kT*eA*kT*dA*dA*d[5mC]*dT*dG*dG*dG*d[5mC]*dA*eA*eA*kT*kT; antisense) [Compound 1198732],YAP1 (% UTC),[6],86 % UTC
1198805 (antisense kA*kT*dT*dG*dT*d[5mC]*dT*d[5mC]*dA*dT*dG*k[5mC]*e[5mC]*kT*eT*kA) [Compound 1198805],YAP1 (% UT),[2],23 % UT
1198213 (kA*kT*dA*dT*dT*dA*dG*dA*dG*dT*dA*eT*eG*eT*kG*kG; antisense) [Compound 1198213],YAP1 (% UTC),[4],16 % UTC
1198974 (kA*kG*dA*d[5mC]*dT*dA*dA*dG*dT*dA*dA*kG*dG*kT*dT*kT; antisense) [Compound 1198974],YAP1 (% UTC),[7],73 % UTC
1198311 (k[5mC]*kA*k[5mC]*dT*dT*dT*dT*dA*d[5mC]*dA*dT*dT*kA*eG*kG*eA; antisense) [Compound 1198311],YAP1 (% UT),[8],39 % UT
1198363 (kA*kA*kG*dT*dA*dA*dG*dG*dT*dT*dT*d[5mC]*k[5mC]*e[5mC]*kA*eG; antisense) [Compound 1198363],YAP1 (% UT),[9],55 % UT
1200795 (kT*kA*kG*dA*dG*mU*dA*dT*dG*dT*dG*dG*d[5mC]*kA*kA*kT; antisense) [Compound 1200795],YAP1 (% UT),[1],30 % UT
1200831 (kT*kT*kT*dA*dG*mG*dA*dT*dG*d[5mC]*dA*dT*dG*kG*kT*kT; antisense) [Compound 1200831],YAP1 (% UT),[10],42 % UT
1009326 (kT*kA*kT*dT*dA*dG*dA*dG*dT*dA*dT*dG*dT*kG*kG*k[5mC]; antisense) [Compound 1009326],YAP1 (% UT),[3],10 % UT
1198649 (kG*kA*dG*dG*dT*dA*dT*dA*dA*d[5mC]*dT*dG*kG*eG*k[5mC]*eA) [Compound 1198649],YAP1 (% UTC),[4],27 % UTC
1198894 (kG*kA*dA*dA*dT*dT*dG*dT*d[5mC]*dT*d[5mC]*kA*dT*kG*d[5mC]*k[5mC]; antisense) [Compound 1198894],YAP1 (% UTC),[7],57 % UTC
1198683 (antisense kA*k[5mC]*dT*d[5mC]*dT*dT*dA*dT*dA*dT*dG*dG*kT*eT*kT*eT) [Compound 1198683],YAP1 (% UTC),[4],27 % UTC
1197215 (antisense kA*kA*kG*dT*dG*dT*dA*dT*dG*dT*d[5mC]*dA*dG*kA*kA*kG) [Compound 1197215],YAP1 (% UT),[8],13 % UT
1095379 (antisense kA*d[5mC]*dT*dG*dA*dG*dG*dT*dA*dT*dA*kA*e[5mC]*kT*eG*kG) [Compound 1095379],YAP1 (% UTC),[5],52 % UTC
1200852 (kT*kG*kT*dA*dA*mU*dA*dT*dT*dG*d[5mC]*dA*dA*kT*k[5mC]*kT; antisense) [Compound 1200852],YAP1 (% UT),[10],32 % UT
1198500 (kA*kT*dT*dT*dA*dG*dG*dA*dT*dG*d[5mC]*eA*kT*eG*kG*eT; antisense) [Compound 1198500],YAP1 (% UTC),[11],17 % UTC
1200821 (kT*kT*kG*dG*dA*mA*dG*dA*dT*d[5mC]*dT*dG*dA*kA*kA*k[5mC]; antisense) [Compound 1200821],YAP1 (% UT),[10],59 % UT
1198780 (antisense kT*eA*kA*dT*dA*dT*dT*dG*d[5mC]*dA*dA*dT*e[5mC]*eT*kG*kT) [Compound 1198780],YAP1 (% UTC),[6],80 % UTC
1198208 (kA*kG*dA*dG*dT*dA*dT*dG*dT*dG*dG*e[5mC]*eA*eA*kT*kA; antisense) [Compound 1198208],YAP1 (% UTC),[4],25 % UTC
1198692 (antisense kT*kG*dT*dA*dA*dT*dA*dT*dT*dG*d[5mC]*dA*kA*eT*k[5mC]*eT) [Compound 1198692],YAP1 (% UTC),"Table 41, SNU-449 cells, 10,000 cells per well, free uptake, 2,000 nM modified oligonucleotide, approximately 48 hours, RTS36584, normalized to RIBOGREEN, Yap1 mRNA relative to untreated control cells",120 % UTC
1198280 (kA*k[5mC]*dT*dA*dA*dG*dT*dA*dA*dG*dG*eT*eT*eT*k[5mC]*k[5mC]; antisense) [Compound 1198280],YAP1 (% UTC),"Table 43 experiment, SNU-449 cells, 10,000 cells per well, free uptake, 2,000 nM, approximately 48 hours, RTS36584, Yap1 mRNA normalized to RIBOGREEN, relative to untreated control cells",40 % UTC
1198527 (kA*kA*dA*dG*dT*dG*dT*dA*dT*dG*dT*e[5mC]*kA*eG*kA*eA; antisense) [Compound 1198527],YAP1 (% UTC),[11],5 % UTC
1198695 (antisense kT*kT*dT*dA*dT*dG*dT*dA*dA*dT*dA*dT*kT*eG*k[5mC]*eA) [Compound 1198695],YAP1 (% UTC),[4],75 % UTC
1198696 (antisense kT*kG*dT*dA*dT*dG*dT*d[5mC]*dA*dG*dA*dA*kG*eA*kG*eT) [Compound 1198696],YAP1 (% UTC),[4],12 % UTC
1198797 (antisense kA*eA*kG*dT*dA*dA*dG*dG*dT*dT*dT*d[5mC]*e[5mC]*e[5mC]*kA*kG) [Compound 1198797],YAP1 (% UTC),[6],31 % UTC
1198292 (kA*kT*kA*dT*dG*dG*dA*dA*dA*dT*dT*dG*kT*e[5mC]*kT*e[5mC]; antisense) [Compound 1198292],YAP1 (% UT),[8],58 % UT
1198841 (kT*kG*d[5mC]*dT*dT*dT*dG*dG*dA*dA*dG*kA*eT*k[5mC]*eT*kG; antisense) [Compound 1198841],YAP1 (% UT),[2],116 % UT
1197251 (antisense kT*kT*kT*dG*mG*dA*dA*dG*dA*dT*d[5mC]*dT*dG*kA*kA*kA) [Compound 1197251],YAP1 (% UT),[1],74 % UT
1198369 (kT*kT*kA*dG*dA*d[5mC]*dT*dA*dA*dG*dT*dA*kA*eG*kG*eT; antisense) [Compound 1198369],YAP1 (% UT),[9],51 % UT
1197232 (antisense kA*kT*kA*dT*mG*dG*dA*dA*dA*dT*dT*dG*dT*k[5mC]*kT*k[5mC]) [Compound 1197232],YAP1 (% UT),"Table 50, Yap1 mRNA remaining as percent of untreated control (UT), SNU-449 cells, single dose",55 % UT
1197223 (antisense kT*kA*kA*dG*dT*dA*dA*dG*dG*dT*dT*dT*d[5mC]*k[5mC]*k[5mC]*kA) [Compound 1197223],YAP1 (% UT),[3],11 % UT
1074462 (kG*kG*kA*dA*dA*dT*dT*dG*dT*d[5mC]*dT*d[5mC]*dA*kT*kG*k[5mC]; antisense) [Compound 1074462],YAP1 (% UT),[3],7 % UT
